Measured values from patent publication US12612380B2, “Non-lysosomal glucosylceramidase inhibitors and uses thereof” (ALECTOS THERAPEUTICS INC., priority 2019, dated 2026).

Columns and labels:
GBA2 [1] = biological target: T1, GBA2 (Homo sapiens, UniProt Q9HCG7); experiment: Binding specificity (selectivity) for GBA2 over other enzymes; type: biochemical; details: compared to a suitable reference compound, e.g. NB-DNJ (miglustat) or AMP-DNM
T1 sequence (Q9HCG7 1-927): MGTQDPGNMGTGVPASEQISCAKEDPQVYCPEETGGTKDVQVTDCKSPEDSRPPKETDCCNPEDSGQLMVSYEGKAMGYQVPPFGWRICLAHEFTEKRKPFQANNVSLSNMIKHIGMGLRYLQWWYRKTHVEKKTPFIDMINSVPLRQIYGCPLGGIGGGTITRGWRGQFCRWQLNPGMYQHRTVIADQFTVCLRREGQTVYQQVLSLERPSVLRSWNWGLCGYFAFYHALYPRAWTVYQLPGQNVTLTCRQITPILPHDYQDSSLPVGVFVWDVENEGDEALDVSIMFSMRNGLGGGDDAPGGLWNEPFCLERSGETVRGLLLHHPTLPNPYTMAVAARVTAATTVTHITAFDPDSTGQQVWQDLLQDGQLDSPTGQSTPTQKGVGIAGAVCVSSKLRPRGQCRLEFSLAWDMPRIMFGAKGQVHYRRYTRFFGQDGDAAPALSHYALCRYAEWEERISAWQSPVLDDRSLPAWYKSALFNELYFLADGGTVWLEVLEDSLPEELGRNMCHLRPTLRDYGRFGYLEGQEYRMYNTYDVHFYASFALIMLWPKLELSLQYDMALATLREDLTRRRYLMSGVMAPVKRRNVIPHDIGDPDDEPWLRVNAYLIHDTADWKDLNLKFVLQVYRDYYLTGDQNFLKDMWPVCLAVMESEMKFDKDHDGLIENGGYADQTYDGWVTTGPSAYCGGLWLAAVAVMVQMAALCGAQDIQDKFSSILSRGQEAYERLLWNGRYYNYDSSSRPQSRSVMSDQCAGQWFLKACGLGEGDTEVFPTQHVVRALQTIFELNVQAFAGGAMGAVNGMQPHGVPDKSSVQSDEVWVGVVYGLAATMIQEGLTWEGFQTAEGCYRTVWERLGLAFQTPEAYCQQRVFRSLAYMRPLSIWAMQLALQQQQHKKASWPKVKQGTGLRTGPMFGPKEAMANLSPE

GBA2 [2] = biological target: T1, GBA2; experiment: Determination of IC50 values for inhibition of GBA2 in cell lysate; type: biochemical; design: host or cells: HEK293T (lentiviral transduction, puromycin selection); used as cellular homogenate
How it was run: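 Homogenate of HEK293T cells stably overexpressing human GBA2 (0.083 mg/mL final), pretreated with 20 μM GCase inhibitor, preincubated 5 min at 37 °C with compound, then reacted 20 min with 250 μM 4-methylumbelliferyl-β-D-glucopyranoside at pH 5.5 (citrate-phosphate, 1% C10E6). Fluorescence read at 365/450 nm after alkaline stop; IC50 from log-inhibitor curve fit.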

[3] = Brain concentration when administered in vivo; details: compared to a suitable reference compound, e.g. NB-DNJ (miglustat) or AMP-DNM
From the text: Permeability can be assessed using a variety of standard experimental techniques, including without limitation in situ perfusion, ex vivo tissue diffusion, in vitro cell monolayers (e.g. Caco-2 cells, MDCK cells, LLC-PK1 cells), and artificial cell membranes (e.g. PAMPA assay); suitable techniques for measuring effective permeability (Peff) or apparent permeability (Papp) are reviewed for example by Volpe in The AAPS Journal, 2010, 12(4), 670-678. In some embodiments, one or more of the compounds according to the invention may show enhanced permeability when tested in one or more of these assays for determining Peff or Papp. […] In some embodiments, “enhanced permeability” means an increase in measured Peff or Papp by any value between about 10% and about 100%, or of any integer value between about 10% and about 100%, for example, about 10%, 20%, 30%, 40%, 50%, 60%, 70%, 80%, 90%, 100%, or over 100%, or an increase by about 1-fold, 2-fold, or 3-fold, or more, as compared to a suitable reference compound such as, for example, N-butyldeoxynojirimycin (NB-DNJ, miglustat) or N-(5-adamantane-1-yl-methoxy)pentyl)-deoxynojirimycin (AMP-DNM, Genz-529648). In some embodiments, “enhanced permeability” means a measurable Papp value (i.e. a value greater than zero) in a suitable assay to measure Papp using in vitro cell monolayers. In some embodiments, “enhanced permeability” means a Papp value greater than 2×10^−6 cm/s in a suitable assay to measure Papp using in vitro cell monolayers. In alternative embodiments, “enhanced permeability” means a Papp value in the range 2×10^−6 cm/s to 40×10^−6 cm/s in a suitable assay to measure Papp using in vitro cell monolayers. In some embodiments, “higher brain concentration” means an increase in measured brain concentration when the compound is administered in vivo by any value between about 10% and about 100%, or of any integer value between about 10% and about 100%, for example, about 10%, 20%, 30%, 40%, 50%, 60%, 70%, 80%, 90%, 100%, or over 100%, or an increase by about 1-fold, 2-fold, 3-fold, 4-fold, 5-fold, 10-fold, 20-fold, 30-fold, 40-fold, or 50-fold, or more, as compared to a suitable reference compound such as, for example, N-butyldeoxynojirimycin (NB-DNJ, miglustat) or N-(5-adamantane-1-yl-methoxy)pentyl)-deoxynojirimycin (AMP-DNM, Genz-529648).

Row | SMILES | binding specificity (IC50 or Ki of other molecule / GBA2) (GBA2 [1]) | IC50 (GBA2 [2]) [µM] | brain concentration when administered in vivo [3]
1 | C[C@@H]1[C@@H](O)[C@H](O)[C@@H](O)CN1CCc1c(F)ccc(Cl)c1F [Example 49, (2R,3R,4R,5S)-1-(3-chloro-2,6-difluorophenethyl)-2-methylpiperidine-3,4,5-triol] | enhanced binding specificity | < 0.1 | higher brain concentrations
2 | C[C@@H]1[C@@H](O)[C@H](O)[C@@H](O)CN1CCc1ccc2c(c1)OCO2 [Example 70, (2R,3R,4R,5S)-1-(2-(benzo[d][1,3]dioxol-5-yl)ethyl)-2-methylpiperidine-3,4,5-triol] | enhanced binding specificity | < 0.1 | higher brain concentrations
